Assay results from patent EP1263420B1 (priority 2000, dated 2001).

Experiments:
Assay in all cases: RAR induction in lung of A/J mice exposed to isotretinoin aerosols (Western blot)
Type in all cases: in vivo
Settings in all cases: inhaled mid dose isotretinoin, urethane-treated A/J mice, relative to vehicle-exposed
RARβ = test system: RARβ
Experimental: (§1) Antibodies: Polyclonal antibodies to RARα, β and γ (Santa Cruz Biotechnology Inc., San Francisco, CA) were used with a BM Chemiluminescence Western Blotting Kit (Mouse/Rabbit) (Boehringer Mannheim Corporation, Indianapolis).
(§2) Experimental Design: Five lungs each from the urethane-treated vehicle, low dose, and mid dose animals were snap frozen in liquid nitrogen and stored at -70°C for determination of RARs α, β and γ by Western Blot Analysis. In addition, five lungs each from urethane-injected unexposed mice, and untreated control mice were designated for Westerns. The lungs were homogenized and the RARs were determined by standard Western Blotting (21, 22). Due to deaths early in the high dose experiment, no lungs were available for Western Blot Analysis for the high dose exposures, i.e. all tissue was used for lesion quantitation purposes.
(§3) Samples: Lung tissue was collected, frozen on dry ice and kept at -70°C until used. A 500 mg portion was diced in small pieces and homogenized in 300 µl of cold PBS using a hand held homogenizer for 2-3 min. Samples were centrifuged at 500 rpm for 5 min or until the supernatant was clear. The pellet was suspended in 400 µl of cold Buffer A [2 µl 0.5 M EDTA, 10 µl 1 mM EGTA, 50 µl 100 mM PMSF, 10 µl 1M DTT, 10 ml (10 mM HEPES pH 7.9 + 10 mM KCl)], and left at ice temperature for 15 min. A 25 µl volume of 10% solution of NP-40 was added and the samples were mixed in a vortex vigorously for 10 sec. Samples were centrifuged at 14,000 rpm for 1 min at 4°C and the pellet was treated once more in this fashion. The supernatant was removed and 25 - 100 µl of Buffer C [4 µl 0.5 M EDTA, 20 µl 100 mM EGTA, 20 µl 0.1 M PMSF, 2 µl 1 M DTT, 2 ml (20 mM HEPES pH 7.9 + 0.4M NaCl)] was added. Pellets were resuspended by tapping gently on the bottom of the Eppendorf tube. Samples were rocked vigorously in a bucket of ice on an orbitor shaker for 30 min. Samples were centrifuged at 14,000 rpm for 5 min at 4°C. Supematants were kept frozen at -70°C until needed. Protein concentration determination was conducted by the Bradford method (23). […]

RARα = test system: RARα
Experimental: as §1, §2, §3

RARγ = test system: RARγ
Experimental: as §1, §2, §3

CC1=C(/C=C/C(C)=C/C=C/C(C)=C\C(=O)O)C(C)(C)CCC1 [13-cis RA, 13-cis-Retinoic Acid]
upregulated lung tissue RAR β over solvent (RARβ): 3.3 fold
upregulated lung tissue RAR α over solvent (RARα): 3.9 fold
upregulated lung tissue RAR γ over solvent (RARγ): 3.7 fold
